Data on one compound can be found in ChEMBL document CHEMBL1833788, “Selective water-soluble gelatinase inhibitor prodrugs” (J Med Chem, 2011).

The subject of data set [1] is Mus musculus. Briefly: Prodrug conversion in C57B1/6 mouse assessed as 4-[4-((Thiiran-2-yl)methylsulphonyl)phenoxy]benzamine level in plasma at […], iv administered as single bolus dose after 22 mins by reversed-phase HPLC/UV analysis. As to conditions: in vivo. It counts as ADME, organism-based.
Data set [2] concerns Mus musculus. Briefly: AUC (0 to infinity) in C57B1/6 mouse plasma assessed as 4-[4-((Thiiran-2-yl)methylsulphonyl)phenoxy]benzamine level at […], iv administered as single bolus dose. The class given is ADME, organism-based. Conditions: in vivo.
In data set [3] the test system is Mus musculus. Put plainly: Prodrug conversion in C57B1/6 mouse assessed as 4-[4-((Thiiran-2-yl)methylsulphonyl)phenoxy]benzamine level in plasma at […], iv administered as single bolus dose after 120 to 123 mins by reversed-phase HPLC/UV analysis. The class given is ADME, organism-based. Conditions: in vivo.
Data set [4] deals with Mus musculus. Briefly: Prodrug conversion in C57B1/6 mouse assessed as 4-[4-((Thiiran-2-yl)methylsulphonyl)phenoxy]benzamine level in plasma at […], iv administered as single bolus dose after 4 to 5 mins by reversed-phase HPLC/UV analysis. The class given is ADME, organism-based. As to conditions: in vivo.
The test system of data set [5] is Mus musculus. Briefly: Prodrug conversion in C57B1/6 mouse assessed as 4-[4-((Thiiran-2-yl)methylsulphonyl)phenoxy]benzamine level in plasma at […], iv administered as single bolus dose after 11 to 12 mins by reversed-phase HPLC/UV analysis. It counts as ADME, organism-based. Conditions: in vivo, read-out: Drug metabolism.
Data set [6] has as its system Mus musculus. Put plainly: Prodrug conversion in C57B1/6 mouse assessed as N-(4-(4-(thiiran-2-ylmethylsulfonyl)phenoxy)phenyl)acetamide level in plasma at […], iv administered as single bolus dose after 2 to 3 mins by reversed-phase LC/MS analysis. As to conditions: in vivo.
Data set [7] relates to Mus musculus. Put plainly: Terminal half life in C57B1/6 mouse plasma assessed as 4-[4-((Thiiran-2-yl)methylsulphonyl)phenoxy]benzamine level at […], iv administered as single dose. Conditions: in vivo. The class given is ADME, organism-based.
Data set [8] relates to Mus musculus. Put plainly: Prodrug conversion in C57B1/6 mouse assessed as N-(4-(4-(thiiran-2-ylmethylsulfonyl)phenoxy)phenyl)acetamide level in plasma at […], iv administered as single bolus dose after 7 to 8 mins by reversed-phase LC/MS analysis. As to conditions: in vivo.
The subject of data set [9] is Mus musculus. Put plainly: AUC (0 to infinity) in C57B1/6 mouse plasma assessed as parent compound level at […], iv administered as single bolus dose. Conditions: in vivo. The class given is ADME, organism-based.

The AUC is the area under the concentration-time curve, a measure of exposure. In the case of `Cl.N=C(N)NCCC[C@H](N)C(=O)Nc1ccc(Oc2ccc(S(=O)(=O)CC3CS3)cc2)cc1` (some centres undefined), the Drug metabolism in the data set on Mus musculus [1] was determined as 0.787 µM; with Mus musculus [3], 0.0248 µM; in the data set on Mus musculus [4] it was 10.4 µM; with Mus musculus [6] it was 0.0354 µM; in the data set on Mus musculus [8], 0.176 µM. For the same compound, the values for the AUC in the data set with Mus musculus [2] and in the data set with Mus musculus [9] were 138 µM·min and 363 µM·min, respectively. Further, in the data set with Mus musculus [5], the concentration is 2450 nM. The “beta t1/2” value with Mus musculus [7] worked out at 1.15 h.
